Results published in PMC7946963, “Phosphorylation regulates the binding of autophagy receptors to FIP200 Claw domain for selective autophagy initiation” (Nature Communications, 2021).
One block for each compound: values may come before it. Peptide text beside a SMILES is read from it.

Assays:
[1] = system: FIP200 Claw (FIP200(1450–1594)); experiment: Analytical gel filtration chromatography with FIP200 Claw; type: binding, human; settings: for interaction of CCPG1 FIR2 variant with FIP200 Claw (in words): analytical gel filtration chromatography and fluorescence spectroscopy-based analyses, Supplementary Fig. 10; for interaction of Optineurin fragment with FIP200 (in words): analytical gel filtration chromatography with FIP200(1450–1594), Fig. 3b, c, Supplementary Fig. 15; for effect of point mutation in Optineurin(169–185) S177E on the interaction with FIP200 (in words): analytical gel filtration chromatography, Supplementary Fig. 16
Protocol: (§1) Purified proteins were loaded on to a […] 10/300 GL column (GE Healthcare) equilibrated with a buffer containing 20 mM Tris-HCl (pH 7.9), 100 mM NaCl and 1 mM DTT. Analytical gel filtration chromatography was carried out on an AKTA FPLC system (GE Healthcare). The fitting results were further output to the Origin 8.5 software and aligned with each other.

[2] = system: different ATG8 proteins (LC3A, LC3B, LC3C, GABARAP, GABARAPL1, GABARAPL2); experiment: ITC-based measurements of ATG16L1 FIR with ATG8 proteins; settings: one-site binding model, peer review file figure
[3] = target: T1, FIP200 Claw domain (residues 1490–1594) (Homo sapiens, UniProt Q8TDY2); experiment: Fluorescence polarization (FP) binding assay, FITC-peptide titrated with FIP200 Claw; settings: N-terminally FITC-labeled peptide (~0.25 μM) titrated with FIP200 Claw (residues 1490–1594), 20 mM Tris pH 7.9, 100 mM NaCl, 1 mM DTT, 25 °C, one-site binding model, performed in triplicate, read-out: Kd (fitted dissociation constant with standard error)
T1 construct: N-terminal Trx-tag/His6-tag or His6-tag/SUMO-tag (vector for this fragment not specified) (N, cleaved yes); made in house; host or cells: E. coli BL21 (DE3)
T1 sequence (Q8TDY2 1490-1594): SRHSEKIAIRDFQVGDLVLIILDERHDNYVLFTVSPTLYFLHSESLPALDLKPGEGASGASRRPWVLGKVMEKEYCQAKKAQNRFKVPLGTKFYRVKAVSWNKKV
Protocol: Fluorescence anisotropy binding assays were performed on the SpectraMax i3x Multi-Mode Detection Platform from Molecular Devices, using a 485 nm excitation filter and a 535 nm emission filter. Peptides were labeled with fluorescein isothiocyanate isomer I (Sigma-Aldrich) at their N-terminals. […] The Kd values were obtained by fitting the titration curves with the classical one-site binding model using GraphPad Prism 6 software.

FIP200 Claw = settings: cited from earlier work
Description: Previous studies have well established a critical role of the FIP200 subunit in the ULK complex for associating with other autophagic factors, especially some autophagy receptors such as CCPG1, NDP52, and P62[30],[49]–[51].

[4] = system: FIP200 Claw R1573E mutant; experiment: Analytical gel filtration chromatography with FIP200 R1573E mutant; type: binding, human; settings: Supplementary Fig. 16
Protocol: as §1

[5] = system: FIP200 Claw K1569A mutant; experiment: Analytical gel filtration chromatography with FIP200 K1569A mutant; type: binding, human; settings: Supplementary Fig. 16
Protocol: as §1

[6] = system: FIP200 Claw F1574Q mutant; experiment: Analytical gel filtration chromatography with FIP200 F1574Q mutant; type: binding, human; settings: Supplementary Fig. 16
Protocol: as §1

[7] = system: FIP200 Claw Y1564S mutant; experiment: Analytical gel filtration chromatography with FIP200 Y1564S mutant; type: binding, human; settings: Supplementary Fig. 16
Protocol: as §1

[8] = system: all six mammalian ATG8 orthologues; experiment: Analytical gel filtration chromatography, statement over all ATG8 orthologues; type: binding; settings: qualitative analytical gel filtration chromatography; Supplementary Figs. 20 and 21
Protocol: as §1

Compound: I106S: I106S point mutant of CCPG1 FIR2 (TASDDSDSVTLEPPK)
interaction of CCPG1 FIR2 variant with FIP200 Claw (in words) [1]: significantly decrease or essentially disrupt

Compound: ATG16L1 FIR: ATG16L1 FIR (residues 235-247), FIP200-interacting region of ATG16L1 (EQDDDIEVIVDET; UniProt Q676U5 235-247, looked up, fragment)
binding to different ATG8 proteins (in words) [2]: can directly bind

Compound: p-Optineurin(33–209): Optineurin(33–209) fragment phosphorylated in vitro by TBK1
interaction of Optineurin fragment with FIP200 (in words) [1]: much stronger binding ability

Kd [3]: 11.5 ± 1.74 µM
Compound: CC[C@H](C)[C@H](NC(=O)[C@H](CCC(=O)O)NC(=O)[C@@H](NC(=O)[C@H](Cc1ccccc1)NC(=O)[C@H](COP(=O)(O)O)NC(=O)[C@H](CC(=O)O)NC(=O)[C@H](CCC(=O)O)NC(=O)[C@H](CO)NC(=O)[C@@H](N)CO)C(C)C)C(=O)N[C@@H](CCCNC(=N)N)C(=O)N[C@@H](CCSC)C(=O)N[C@@H](C)C(=O)N[C@@H](CCC(=O)O)C(=O)O [p-Optineurin LIR] (HELM PEPTIDE1{S.S.E.D.[O=C([C@H](COP(=O)(O)O)N[*:1])[*:2]].F.V.E.I.R.M.A.E}$$$$V2.0)

Compound: Optineurin(33–168): recombinant human Optineurin fragment, residues 33–168
interaction of Optineurin fragment with FIP200 (in words) [1]: no obvious interactions

Compound: F178Q: F178Q mutation of the phosphomimetic Optineurin(169–185) S177E mutant (NSSGSSEDEQVEIRMAE)
effect of point mutation in Optineurin(169–185) S177E on the interaction with FIP200 (in words) [1]: significantly attenuate or completely abolish

Compound: L109A: L109A point mutant of CCPG1 FIR2 (TASDDSDIVTAEPPK)
interaction of CCPG1 FIR2 variant with FIP200 Claw (in words) [1]: significantly decrease or essentially disrupt

Compound: T108A: T108A point mutant of CCPG1 FIR2 (TASDDSDIVALEPPK)
interaction of CCPG1 FIR2 variant with FIP200 Claw (in words) [1]: significantly decrease or essentially disrupt

Compound: phosphomimetic quadruple mutations (S349D, S365D, S366D, and S370D) of P62: P62 with phosphomimetic S349D, S365D, S366D, S370D mutations, from ref 49
enhancement of the binding affinity of P62 for FIP200 Claw by phosphomimetic mutations (FIP200 Claw): roughly by twofold

Compound: D105A: D105A point mutant of CCPG1 FIR2 (TASDDSAIVTLEPPK)
interaction of CCPG1 FIR2 variant with FIP200 Claw (in words) [1]: significantly decrease or essentially disrupt

Compound: D176R: D176R mutation of the phosphomimetic Optineurin(169–185) S177E mutant (NSSGSSEREFVEIRMAE)
effect of point mutation in Optineurin(169–185) S177E on the interaction with FIP200 (in words) [1]: significantly attenuate or completely abolish

Compound: Optineurin(169–185) S177E: recombinant phosphomimetic S177E mutant of Optineurin(169–185) that solely includes the LIR motif (NSSGSSEDEFVEIRMAE; UniProt Q96CV9 169-185, looked up, variant S177E)
interaction of Optineurin fragment with FIP200 (in words) [1]: can specifically interact
interaction with FIP200 R1573E mutant compared with wild type (in words) [4]: significantly attenuate or completely abolish
interaction with FIP200 K1569A mutant compared with wild type (in words) [5]: significantly attenuate or completely abolish
interaction with FIP200 F1574Q mutant compared with wild type (in words) [6]: significantly attenuate or completely abolish
interaction with FIP200 Y1564S mutant compared with wild type (in words) [7]: significantly attenuate or completely abolish

Compound: Optineurin(186–209): recombinant human Optineurin fragment, residues 186–209
interaction of Optineurin fragment with FIP200 (in words) [1]: no obvious interactions

Compound: CCPG1 FIR2 S104E: recombinant phosphomimetic S104E mutant of CCPG1 FIR2 (residues 99–113) (TASDDEDIVTLEPPK)
interaction of CCPG1 FIR2 variant with FIP200 Claw (in words) [1]: good abilities to interact
interaction with all six mammalian ATG8 orthologues (in words) [8]: can directly interact
